Earlier results as cited in US12403129B2, “Isotope-enriched 3-amino-1-propanesulfonic acid derivatives for the treatment of cerebrovascular disease” (RISEN (SUZHOU) PHARMA TECH CO., LTD., priority 2021, dated 2025).

Assays:
[1] = produces three potential metabolites; major metabolite 2-carboxyethanesulfonic acid; cited from earlier work
[2] = target: interaction between PSD95 and nNOS (Homo sapiens, UniProt P29475+P78352); conditions: by blocking the interaction between PSD95 and nNOS; cited from earlier work
interaction between PSD95 and nNOS, sequence (P78352 whole entry): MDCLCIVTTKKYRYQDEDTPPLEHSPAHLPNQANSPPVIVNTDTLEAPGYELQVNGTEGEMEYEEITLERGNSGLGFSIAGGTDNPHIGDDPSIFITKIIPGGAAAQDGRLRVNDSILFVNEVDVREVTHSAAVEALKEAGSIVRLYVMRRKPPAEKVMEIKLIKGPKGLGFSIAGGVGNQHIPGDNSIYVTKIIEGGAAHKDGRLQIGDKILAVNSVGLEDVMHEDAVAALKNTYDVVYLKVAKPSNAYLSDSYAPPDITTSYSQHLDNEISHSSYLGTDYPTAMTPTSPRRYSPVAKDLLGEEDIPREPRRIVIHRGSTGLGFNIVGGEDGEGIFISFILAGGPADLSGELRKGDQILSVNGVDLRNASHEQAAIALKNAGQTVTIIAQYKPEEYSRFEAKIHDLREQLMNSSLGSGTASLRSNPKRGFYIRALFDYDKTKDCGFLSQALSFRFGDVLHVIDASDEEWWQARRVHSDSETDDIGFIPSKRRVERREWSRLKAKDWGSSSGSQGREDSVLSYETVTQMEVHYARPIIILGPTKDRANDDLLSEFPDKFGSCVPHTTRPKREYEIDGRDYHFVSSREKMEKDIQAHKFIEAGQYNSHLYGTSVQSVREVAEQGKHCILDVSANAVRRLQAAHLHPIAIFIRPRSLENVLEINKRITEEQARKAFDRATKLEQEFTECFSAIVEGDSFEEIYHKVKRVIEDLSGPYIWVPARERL
interaction between PSD95 and nNOS, sequence (P29475 whole entry): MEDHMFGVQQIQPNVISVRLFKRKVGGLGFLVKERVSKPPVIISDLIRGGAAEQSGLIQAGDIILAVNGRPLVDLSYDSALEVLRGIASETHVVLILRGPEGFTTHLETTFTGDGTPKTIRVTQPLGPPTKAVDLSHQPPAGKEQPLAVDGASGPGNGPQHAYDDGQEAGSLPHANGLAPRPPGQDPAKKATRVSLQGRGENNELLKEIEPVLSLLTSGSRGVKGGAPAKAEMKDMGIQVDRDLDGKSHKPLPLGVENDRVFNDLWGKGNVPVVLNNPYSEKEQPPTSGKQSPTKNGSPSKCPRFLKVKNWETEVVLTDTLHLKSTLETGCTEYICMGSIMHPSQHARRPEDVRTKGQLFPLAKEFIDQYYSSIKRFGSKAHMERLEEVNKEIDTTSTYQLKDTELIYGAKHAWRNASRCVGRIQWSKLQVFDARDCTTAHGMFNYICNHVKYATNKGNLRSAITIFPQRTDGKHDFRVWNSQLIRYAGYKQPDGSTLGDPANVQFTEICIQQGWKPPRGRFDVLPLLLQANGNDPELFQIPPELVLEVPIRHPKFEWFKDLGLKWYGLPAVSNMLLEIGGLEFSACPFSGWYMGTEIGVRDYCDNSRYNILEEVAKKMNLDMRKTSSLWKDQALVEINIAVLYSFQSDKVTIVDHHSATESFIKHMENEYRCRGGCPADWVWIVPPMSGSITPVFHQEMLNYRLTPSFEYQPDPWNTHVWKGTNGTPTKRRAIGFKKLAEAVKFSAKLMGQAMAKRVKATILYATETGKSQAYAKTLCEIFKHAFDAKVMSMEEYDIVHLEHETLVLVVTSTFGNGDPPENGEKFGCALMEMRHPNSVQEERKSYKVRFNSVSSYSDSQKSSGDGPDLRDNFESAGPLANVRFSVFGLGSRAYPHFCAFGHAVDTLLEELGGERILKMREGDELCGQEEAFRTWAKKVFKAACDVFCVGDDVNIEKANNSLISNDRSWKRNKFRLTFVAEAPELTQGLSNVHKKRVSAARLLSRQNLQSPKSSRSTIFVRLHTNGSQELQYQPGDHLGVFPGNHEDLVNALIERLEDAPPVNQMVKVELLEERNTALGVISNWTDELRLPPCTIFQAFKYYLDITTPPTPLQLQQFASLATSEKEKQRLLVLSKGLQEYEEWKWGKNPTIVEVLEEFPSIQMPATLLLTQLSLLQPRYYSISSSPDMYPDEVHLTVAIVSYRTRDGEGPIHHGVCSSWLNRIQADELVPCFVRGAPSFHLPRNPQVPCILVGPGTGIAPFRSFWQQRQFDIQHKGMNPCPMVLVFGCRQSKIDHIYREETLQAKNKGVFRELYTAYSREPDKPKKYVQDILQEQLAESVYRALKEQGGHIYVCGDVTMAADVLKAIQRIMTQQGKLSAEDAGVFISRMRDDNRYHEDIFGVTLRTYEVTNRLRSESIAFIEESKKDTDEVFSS

SMILES: NCCCS(=O)(=O)O [Tramiprosate, 3-amino-1-propanesulfonic acid]
- metabolism in vivo [1]: extensively metabolized
- protection of neurons from ischemic stroke [2]: can protect neurons from ischemic stroke
